Reference: article PMC8466754, “Esterase-Sensitive Prodrugs of a Potent Bisubstrate Inhibitor of Nicotinamide N-Methyltransferase (NNMT) Display Cellular Activity” (Biomolecules, 2021)

Columns and labels:
[1] = system: HSC-2 human oral cancer cell line; test: MTT cell viability assay, HSC-2; type: cell-based
Experimental: (§1) HSC-2 human oral cancer cell line, T24 human bladder cancer cell line, and A549 human lung cancer line were cultured in DMEM/F12 medium and supplemented with 10% fetal bovine serum and 50 μg/mL gentamicin at 37 °C in a humidified 5% CO2 incubator. For each compound tested, powder was dissolved in DMSO at 100 mM concentration. This stock solution was then diluted in culture medium to final concentration values ranging between 1 µM and 100 µM. For each sample, DMSO was kept constant at 0.1% final concentration. The day before starting treatment, cells were seeded in 96-well plates, at a density of 2000 cells/well. Cells were allowed to attach overnight and then incubated with compounds at different concentrations, or with DMSO only, for 24, 48, and 72 h. All experiments were performed in triplicate.
(§2) Cell proliferation was determined using a colorimetric assay with 3-(4,5-dimethylthiazol-2-yl)-2,5-diphenyl tetrazolium bromide (MTT). The MTT assay measures the conversion of MTT to insoluble formazan by dehydrogenase enzymes of the intact mitochondria of living cells. Cell proliferation was evaluated by measuring the conversion of the tetrazolium salt MTT to formazan crystals upon treatment with compounds or DMSO only for 24, 48, and 72 h. Briefly, cells were incubated for 2 h at 37 °C with 100 µL fresh culture medium containing 5 µL of MTT reagent (5 mg/mL in PBS). The medium was removed and 200 µL isopropanol were added. The amount of formazan crystals formed correlated directly with the number of viable cells. The reaction product was quantified by measuring the absorbance at 540 nm using a plate reader. Experiments were repeated three times. Results were expressed as a percentage of the control (the control equals 100% and corresponds to the absorbance value of each sample at time zero) and presented as mean values ± standard deviation of three independent experiments performed in triplicate.

NNMT [2] = biological target: T1, NNMT (Homo sapiens, UniProt P40261); test: 1-Methylnicotinamide (MNA) quantification in A549 cells (LC-MS); conditions: A549 lung carcinoma cells; 0.1–100 µM; 24-h treatment (Figure 4)
T1 sequence (P40261 1-264): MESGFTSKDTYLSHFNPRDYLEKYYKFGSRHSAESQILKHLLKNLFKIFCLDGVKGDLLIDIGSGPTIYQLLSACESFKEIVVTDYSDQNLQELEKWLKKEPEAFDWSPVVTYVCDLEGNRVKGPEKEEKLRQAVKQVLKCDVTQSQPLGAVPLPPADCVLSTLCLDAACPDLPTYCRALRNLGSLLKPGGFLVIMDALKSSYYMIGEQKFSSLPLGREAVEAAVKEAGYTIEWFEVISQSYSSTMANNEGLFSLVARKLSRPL
Experimental: Human lung adenocarcinoma line (A549, ATCC, Manassas, VA, USA) was cultured according to the provider’s indications and seeded in 6-well format. […] After incubation, effluent samples were taken and frozen (−80 °C) for further MNA measurement. Cells also were collected, centrifuged (2 × 500 G/5 min.), and frozen both for the measurement of intracellular MNA and for BCA protein assay.
The quantification of 1-methylnicotinamide (MNA), nicotinamide (NA), nicotinic acid (NicA), 1-methyl-2-pyridone-5-carboxamide (Met-2Pyr), and 1-methyl-4-pyridone-5-carboxamide (Met-4Pyr) was performed by applying ultra-high pressure liquid chromatography coupled to tandem mass spectrometry (UPLC-MS) according to the methodology previously described with minor modifications [35]. A UPLC-MS system comprised of a UPLC Ultimate 3000 (Dionex, Thermo Scientific, Waltham, MA, USA) connected to a TSQ Quantum Ultra mass spectrometer (Thermo Scientific, Waltham, MA, USA) equipped with a heated electrospray ionization interface (HESI-II Probe, Waltham, MA, USA) was used. Chromatographic separation of analytes was carried out on an Aquasil C18 analytical column (4.6 mm × 150 mm, 5 mm; Thermo Scientific, Waltham, MA, USA) under isocratic elution using acetonitrile with 0.1% of formic acid (A) and 5 mM ammonium formate in water (B) as mobile phases delivered at the flow rate of 0.8 mL/min (A:B, 80:20, v/v). The cell pellet was resuspended in 60 µL of deionized water and 50 µL of suspension was transferred to a fresh test tube. An amount of 50 µL of effluent sample was used for the measurement of extracellular MNA. The internal standard (IS) containing MNA-d3 was added to each sample (5 µL) obtaining the final concentration of 500 ng/mL. After the sample mixing, the proteins were precipitated using 100 μL of acidified acetonitrile (0.1% of formic acid), and samples were mixed (10 min), cooled at 4 °C (15 min), and finally centrifuged (15,000× g, 15 min, 4 °C). A clear supernatant was transferred to a chromatographic vial and directly injected (5 µL) into UPLC-MS system. […] The concentration of MNA was calculated based on the calibration curve plotted for the analyte as the relationship between the peak area ratios of analyte/IS to the nominal concentration of the analyte. The concentration of analytes was normalized to milligram of proteins, which was assessed using a Pierce^TM BCA Protein Assay Kit (Thermo Fisher, Waltham, MA, USA) and a Synergy4 multiplate reader (BioTek, Winooski, VT, USA). […]
Using this assay, the levels of MNA produced by NNMT in an A549 lung carcinoma cell line can be quantified by means of a sensitive LC-MS method.

human cancer cell lines = system: human cancer cell lines; design: method as in PMID 34424711; conditions: range of human cancer cell lines; highest concentration tested 100 µM; cited from earlier work
[3] = system: A549 human lung cancer line; test: MTT cell viability assay, A549; type: cell-based
Experimental: as §1, §2

[4] = system: T24 human bladder cancer cell line; test: MTT cell viability assay, T24; type: cell-based
Experimental: as §1, §2

pig liver esterase (PLE) = test: Esterase-mediated hydrolysis to the parent compound (RP-HPLC); type: in vitro ADME
Experimental: The conversion of the prodrugs to the parent compound by esterases was evaluated using pig liver esterase (PLE, 18 U/mg, Sigma-Aldrich, St. Louis, MO, USA) in PBS at pH 7.4. Compounds were dissolved in DMSO at 40 mM, diluted to a final concentration of 2 mM with PBS, and added to an equal volume of a 10 mg/mL solution of PLE in PBS (pH 7.4), resulting in final concentrations of 2.5% DMSO, 1 mM compound, and 5 mg/mL PLE. At different time-points 50 µL aliquots were taken, added to 100 µL acetonitrile to precipitate the proteins, and centrifuged for 5 min at 10,000 rpm. The supernatant was subsequently analyzed by HPLC as described in Section 2.2 above.
The next step was to establish whether compounds 12e and 14e are converted to the parent compound in the presence of an esterase.

[5] = Ester stability assay in buffer (RP-HPLC); type: physicochemical; conditions: for percentage of compound peak area present after 16 h of incubation, PBS: PBS buffer pH 7.4, 16 h; for percentage of compound peak area present after 16 h of incubation, PBS / percentage of compound peak area present after 16 h of incubation, Tris: room temperature, 1 mM compound; for hydrolytic stability in buffer (in words): PBS pH 7.4 and Tris pH 8.4, over 16 h; for percentage of compound peak area present after 16 h of incubation, Tris: Tris buffer pH 8.4, 16 h
Experimental: The prodrugs were evaluated for their stability in both PBS buffer at pH 7.4 and Tris buffer at pH 8.4. The compounds were dissolved in DMSO at a concentration of 40 mM and diluted with the respective buffer to a final concentration of 1 mM. Compounds were tested directly (t0) and subsequently every 2 h over a time period of 16 h by HPLC. Compounds were eluted from a Dr. Maisch ReproSil-Pur C18 column (4.6 × 250 mm, 10 μm particle size, Dr. Maisch, Ammerbuch-Entringen, Germany) with the following solvent system at a flow rate of 0.5 mL/min: solvent A, 0.1% trifluoroacetic acid in water/acetonitrile (95:5); solvent B, 0.1% trifluoroacetic acid in water/acetonitrile (5:95). Gradient elution was as follows: 100:0 (A/B) to 0:100 (A/B) over 8 min, 0:100 (A/B) for 1 min, then reversion back to 100:0 (A/B) over 1 min, 100:0 (A/B) for 2 min. The formation of the parent compound was evaluated and normalized by measuring the peak area at 214 nm and comparing it to the initial timepoint.
All prodrugs prepared were first tested for their inhibitory activity against NNMT using a biochemical enzymatic activity assay. […] Both these buffers and pHs have been used in the different biochemical and cellular assays described in this report. Compounds were dissolved in DMSO at a concentration of 40 mM and diluted with the respective buffer to a final concentration of 1 mM. Compound stability was then assessed by RP-HPLC directly (t0) and subsequently every 2 h over a time period of 16 h. […] Even for the rather labile methyl ester 12b, the TML group in 14b results in a decrease in hydrolysis of the methyl ester.

NNMT [6] = biological target: T1, NNMT; test: Cellular MNA in HMEC-1 cells (Figure S1); type: cell-based; design: concentrations in endothelial HMEC-1 cells after 24-hour incubation; endogenous in cells; host or cells: HMEC-1 endothelial cells; conditions: 10 µM, 24-hour incubation
Experimental: The following are available online at https://www.mdpi.com/article/10.3390/biom11091357/s1, Figure S1: cellular MNA data in HMEc-1 cells treated with 10 µM reference inhibitors or prodrugs; ^1H and ^13C NMR spectra of compounds 3e, 4c–e, 8a, 11b–f, 12b–f, 13a–c, 13e, 14a–f.
Figure S1. 1-methylnicotinamide (MNA) concentrations in endothelial HMEC-1 cells after 24-hour incubation
with 10 µM of reference compounds 5-amino-methylquinolinium (5-MQ), 6-methylamino-nicotinamide (6-
MANA), parent compound GYZ-319 or prodrug compounds 12b-f and 14a-e. […]

[7] = Aqueous solubility (observation); type: physicochemical

time to full conversion to the parent compound (pig liver esterase (PLE); 5 mg/mL PLE, PBS pH 7.4, 1 mM compound) [h]	hydrolysis in the absence of PLE (pig liver esterase (PLE); PBS pH 7.4, without PLE)	SMILES	effect on cell viability (MTT) ([1]; 1 and 10 µM, 24, 48 and 72 h)	effect on cellular MNA levels (NNMT [2])	antiproliferative effects (human cancer cell lines)	effect on cell viability (MTT) ([3]; 1 and 10 µM, 24, 48 and 72 h)	effect on cell viability (MTT) ([4]; 1 and 10 µM, 24, 48 and 72 h)	effect on cell viability (MTT) ([1]; 100 µM, 24, 48 and 72 h)	percentage of compound peak area present after 16 h of incubation, PBS [5] [%]	hydrolytic stability in buffer (in words) [5]	percentage of compound peak area present after 16 h of incubation, Tris [5] [%]	effect on cell viability (MTT) ([3]; 100 µM, 24, 48 and 72 h)	effect on cell viability (MTT) ([4]; 100 µM, 24, 48 and 72 h)	cellular activity (MNA concentration) compared to parent compound (NNMT [6])	aqueous solubility [7]
–	–	N#Cc1ccc(/C=C/CN(CC[C@H](N)C(=O)O)C[C@H]2O[C@@H](n3cnc4c(N)ncnc43)[C@H](O)[C@@H]2O)cc1 [GYZ-319]	no effects	high concentrations of both 6-MANA and GYZ-319 are required to substantially decrease the levels of MNA	only showed significant antiproliferative effects at the highest concentration tested of 100 µM	no effects	no effects	–	–	–	–	–	–	–	–
≤ 4	no hydrolysis was observed	CC(C)OC(=O)[C@@H](N)CCN(C/C=C/c1ccc(C#N)cc1)C[C@H]1O[C@@H](n2cnc3c(N)ncnc32)[C@H](O)[C@@H]1O [Compound 12e, Isopropyl-(S)-2-amino-4-((((2R,3S,4R,5R)-5-(6-amino-9H-purin-9-yl)-3,4-dihydroxytetrahydrofuran-2-yl)methyl)((E)-3-(4-cyanophenyl)allyl)amino)butanoate]	no effects	clear and significant decrease in MNA levels	–	no effects	no effects	effect comparable to GYZ-319	98.59	most stable	93.70	effect comparable to GYZ-319	effect comparable to GYZ-319	–	–
–	–	CC(=O)Oc1cc(C)cc(C)c1C(C)(C)CC(=O)N[C@@H](CCN(C/C=C/c1ccc(C#N)cc1)C[C@H]1O[C@@H](n2cnc3c(N)ncnc32)[C@H](O)[C@@H]1O)C(=O)O [Compound 14a, (S)-2-(3-(2-acetoxy-4,6-dimethylphenyl)-3-methylbutanamido)-4-((((2R,3S,4R,5R)-5-(6-amino-9H-purin-9-yl)-3,4-dihydroxytetrahydrofuran-2-yl)methyl)((E)-3-(4-cyanophenyl)allyl)amino)butanoic acid]	–	–	–	–	–	–	99.10	most stable	93.97	–	–	not to improve the cellular activity of the parent compound	–
–	–	CC(=O)Oc1cc(C)cc(C)c1C(C)(C)CC(=O)N[C@@H](CCN(C/C=C/c1ccc(C#N)cc1)C[C@H]1O[C@@H](n2cnc3c(N)ncnc32)[C@H](O)[C@@H]1O)C(=O)OCc1ccccc1 [Compound 14f, Benzyl-(S)-2-(3-(2-acetoxy-4,6-dimethylphenyl)-3-methylbutanamido)-4-((((2R,3S,4R,5R)-5-(6-amino-9H-purin-9-yl)-3,4-dihydroxytetrahydrofuran-2-yl)methyl)((E)-3-(4-cyanophenyl)allyl)amino)butanoate]	–	–	–	–	–	–	–	–	–	–	–	–	poor aqueous solubility
